In patent publication US20080019931A1, “Method and composition for producing enhanced fingernails” (PROSTRONG, INC, priority 2004, published 2008):

Experiment: Solubility in water
Format: physicochemical

O=P([O-])([O-])P(=O)([O-])[O-].[Ca+2].[Ca+2] [Calcium Hypophosphate]
solubility in water: soluble in water
